Test [1] has as its target T1, Adenosine receptor A1 (Homo sapiens) (UniProt P30542).
T1 sequence (whole entry): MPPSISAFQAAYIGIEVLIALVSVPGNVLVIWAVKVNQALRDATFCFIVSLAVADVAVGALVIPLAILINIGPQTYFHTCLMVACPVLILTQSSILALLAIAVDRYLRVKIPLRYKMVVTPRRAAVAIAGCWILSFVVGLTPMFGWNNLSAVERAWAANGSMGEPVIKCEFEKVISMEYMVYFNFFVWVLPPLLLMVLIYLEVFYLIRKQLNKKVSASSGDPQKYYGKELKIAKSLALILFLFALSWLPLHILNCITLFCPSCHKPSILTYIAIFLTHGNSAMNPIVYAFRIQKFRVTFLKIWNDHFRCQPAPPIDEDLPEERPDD
Put plainly: Displacement of [3H]DPCPX from human adenosine A1 receptor expressed in CHO cells at 1 uM. The class given is cell-based.

In test [2] the target is T2, Adenosine receptor A2a (Homo sapiens, UniProt P29274). In words: Displacement of [3H]ZM-241385 from human adenosine A2A receptor expressed in HEK293 cells at 1 uM. The class given is cell-based.
T2 sequence (P29274 whole entry): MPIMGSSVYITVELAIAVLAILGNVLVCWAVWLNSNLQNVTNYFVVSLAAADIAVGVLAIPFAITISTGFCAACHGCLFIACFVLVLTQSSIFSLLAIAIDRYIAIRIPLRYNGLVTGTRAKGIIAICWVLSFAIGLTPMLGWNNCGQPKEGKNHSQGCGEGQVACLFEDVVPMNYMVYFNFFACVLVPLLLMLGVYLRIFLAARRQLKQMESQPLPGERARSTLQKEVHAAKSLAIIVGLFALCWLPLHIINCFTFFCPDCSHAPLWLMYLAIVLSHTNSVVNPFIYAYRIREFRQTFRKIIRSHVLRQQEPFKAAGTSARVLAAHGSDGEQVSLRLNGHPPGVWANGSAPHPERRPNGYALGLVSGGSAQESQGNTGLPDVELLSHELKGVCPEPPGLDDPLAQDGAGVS
In test [3] the target is T2, Adenosine receptor A2a. In words: biochemical.
The target of test [4] is T3, Adenosine receptor A1 (Homo sapiens, UniProt P30542).
T3 sequence (P30542 whole entry): T1 sequence (whole entry)
Put plainly: biochemical.

The target in test [5] is T1, Adenosine receptor A1 (Homo sapiens). In words: (§1) Activity at human adenosine A1 receptor expressed in CHO cells assessed as inhibition of CPA-induced decrease in forskolin-stimulated cAMP production by TR-FRET assay. The test is classed as functional, cell-based.
Test [6] has as its target T3, Adenosine receptor A1. The test is described as §1. The test is classed as functional, cell-based.
A further test concerns the target T4, Adenosine receptor A3 (Homo sapiens, UniProt P0DMS8).
T4 sequence (P0DMS8 whole entry): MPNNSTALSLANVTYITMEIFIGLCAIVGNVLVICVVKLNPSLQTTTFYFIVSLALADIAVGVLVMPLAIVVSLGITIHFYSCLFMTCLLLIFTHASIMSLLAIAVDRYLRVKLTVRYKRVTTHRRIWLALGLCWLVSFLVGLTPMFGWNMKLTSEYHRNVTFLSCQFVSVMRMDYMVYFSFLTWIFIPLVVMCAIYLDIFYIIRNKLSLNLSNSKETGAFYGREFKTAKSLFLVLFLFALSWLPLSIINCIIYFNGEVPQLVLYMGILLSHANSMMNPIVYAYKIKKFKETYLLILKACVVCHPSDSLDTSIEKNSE
In words: biochemical.

Description for Adenosine receptor A3: Displacement of [3H]AB-MECA from human adenosine A3 receptor expressed in HEK293 cells

Turning to `N#Cc1c(-c2ccccc2)nc(NC(=O)c2ccco2)nc1-c1ccccc1`, the Activity in test [1] worked out at 26%; on Adenosine receptor A2a [2] it was 42%.
Turning to `N#Cc1c(-c2ccccc2)nc(NC(=O)c2ccccc2)nc1-c1ccccc1`, the Activity in test [1] is 38%; at Adenosine receptor A2a [2], 48%.
For `COc1ccc(C(=O)Nc2nc(-c3ccccc3)c(C#N)c(-c3ccccc3)n2)cc1`, the Ki at Adenosine receptor A2a [3] was found to be 300 nM; at Adenosine receptor A1 [4], 102 nM.
In the case of `N#Cc1c(NC(=O)C2CCCC2)nc(-c2ccccc2)nc1-c1ccc2c(c1)OCO2`, the Kb in test [5] is 28 nM. In addition, the IC50 on Adenosine receptor A1 [6] turned out to be 1400 nM.
In the case of `N#Cc1c(NC(=O)C2CC2)nc(-c2ccccc2)nc1-c1ccccc1`, the inhibition constant Ki at Adenosine receptor A2a [3] was determined as 49.8 nM; on Adenosine receptor A1 [4] it was 27.9 nM.
Consider `CC(C)C(=O)Nc1nc(-c2ccccc2)c(C#N)c(-c2ccccc2)n1`, for which the Ki at Adenosine receptor A2a [3] was determined as 35.3 nM; on Adenosine receptor A1 [4] it was 2.9 nM.
On to `OC[C@H]1O[C@@H](n2cnc3c(NC4CCCC4)ncnc32)[C@H](O)[C@@H]1O` [N6-CYCLOPENTYLADENOSINE], for which the Ki at Adenosine receptor A2a [3] was 1650 nM.
As to `CCC(CC)C(=O)Nc1cc(-c2ccc3c(c2)OCO3)nc(-c2ccccc2)n1`, the Ki on Adenosine receptor A2a [3] was 574 nM; on Adenosine receptor A3, 634 nM; at Adenosine receptor A1 [4], 27.9 nM.
`Nc1nc(-c2ccccc2)cc(-c2ccc3c(c2)OCO3)n1`: the affinity at Adenosine receptor A2a [3], expressed as Ki, was 381 nM.
At Adenosine receptor A2a [3], `N#Cc1c(-c2ccccc2)nc(N)nc1-c1ccccc1` returned a Ki of 22.7 nM.
On to `CCCC(=O)Nc1nc(-c2ccccc2)nc(-c2ccccc2)c1C#N`, for which the Ki came out at 69.5 nM on Adenosine receptor A2a [3] and 12.6 nM on Adenosine receptor A1 [4].
On to `N#Cc1c(-c2ccccc2)nc(NC(=O)c2ccc(Cl)cc2)nc1-c1ccccc1`, for which the Ki turned out to be 32.9 nM on Adenosine receptor A2a [3] and 92.3 nM on Adenosine receptor A1 [4].
In the case of `CCC(CC)C(=O)Nc1nc(-c2ccccc2)c(C#N)c(-c2ccccc2)n1`, the Ki was 54.5 nM at Adenosine receptor A2a [3] and 6.4 nM on Adenosine receptor A1 [4].
`N#Cc1c(-c2ccccc2)nc(NC(=O)C2CCCC2)nc1-c1ccccc1`: the Ki turned out to be 159 nM on Adenosine receptor A2a [3] and 1.2 nM on Adenosine receptor A1 [4]. In addition, the Kb in test [5] was determined as 3 nM. The IC50 at Adenosine receptor A1 [6] was 150 nM.
`N#Cc1c(-c2ccccc2)nc(NC(=O)C2CC2)nc1-c1ccccc1`: the results for the Ki on Adenosine receptor A2a [3] and at Adenosine receptor A1 [4] were 45.5 nM and 9.4 nM, respectively.
On to `N#Cc1c(-c2ccccc2)nc(NC(=O)c2ccc(Cl)c(Cl)c2)nc1-c1ccccc1`, for which the Activity in test [1] was 58%; at Adenosine receptor A2a [2], 35%.
For the molecule `N#Cc1c(N)nc(-c2ccccc2)nc1-c1ccc2c(c1)OCO2`, the Ki on Adenosine receptor A2a [3] stood at 44.3 nM; at Adenosine receptor A1 [4], 4.9 nM.
Molecule `CCC(CC)C(=O)Nc1nc(-c2ccccc2)nc(-c2ccc3c(c2)OCO3)c1C#N` registered an inhibitory constant (Ki) at Adenosine receptor A1 [4] of 18.4 nM. Besides, at Adenosine receptor A2a [2], the Activity came out at 0%.
On to `O=C(Nc1nc(-c2ccccc2)cc(-c2ccc3c(c2)OCO3)n1)C1CCCC1`, for which the Ki at Adenosine receptor A1 [4] is 8.1 nM. Further, the Activity on Adenosine receptor A2a [2] came out at 26%.
With `N#Cc1c(N)nc(-c2ccccc2)nc1-c1ccccc1`, the Ki on Adenosine receptor A2a [3] was found to be 19 nM; on Adenosine receptor A1 [4], 10.8 nM.
On Adenosine receptor A1 [4], `Nc1nc(-c2ccccc2)cc(-c2ccccc2)n1` came in with an inhibitory constant (Ki) of 17.7 nM. That is a double-digit nanomolar value.
As for `CCCC(=O)Nc1nc(-c2ccccc2)c(C#N)c(-c2ccccc2)n1`, the values for the Ki on Adenosine receptor A2a [3] and on Adenosine receptor A1 [4] were 48.2 nM and 2.9 nM, respectively.
Turning to `N#Cc1c(-c2ccccc2)nc(N)nc1-c1ccc2c(c1)OCO2`, at Adenosine receptor A2a [3], the inhibition constant (Ki) was 5.2 nM. This lies in the single-digit nanomolar range.
On to `O=C(Nc1cc(-c2ccc3c(c2)OCO3)nc(-c2ccccc2)n1)C1CC1`, for which the Ki stood at 69.2 nM at Adenosine receptor A2a [3], 30.7 nM on Adenosine receptor A3 and 13 nM on Adenosine receptor A1 [4].
Consider `CCCC(=O)Nc1nc(-c2ccccc2)c(C#N)c(-c2ccc3c(c2)OCO3)n1`, for which the Ki on Adenosine receptor A2a [3] turned out to be 21.3 nM; at Adenosine receptor A1 [4] it was 8.3 nM.
Regarding `O=C(Nc1cc(-c2ccc3c(c2)OCO3)nc(-c2ccccc2)n1)C1CCCC1`, the Ki turned out to be 339 nM at Adenosine receptor A2a [3], 186 nM at Adenosine receptor A3 and 17.3 nM at Adenosine receptor A1 [4].
The molecule `CCC(CC)C(=O)Nc1nc(-c2ccccc2)cc(-c2ccc3c(c2)OCO3)n1` displayed a Ki at Adenosine receptor A1 [4] of 17.6 nM. Besides, at Adenosine receptor A2a [2], the Activity was determined as 33%.
`N#Cc1c(-c2ccccc2)nc(NC(=O)C2CCCC2)nc1-c1ccc2c(c1)OCO2`: the values for the inhibitory constant (Ki) on Adenosine receptor A2a [3] and on Adenosine receptor A1 [4] were 27.2 nM and 2.8 nM, respectively.
Regarding `CCCC(=O)Nc1cc(-c2ccc3c(c2)OCO3)nc(-c2ccccc2)n1`, the figures for the Ki at Adenosine receptor A2a [3], at Adenosine receptor A3 and on Adenosine receptor A1 [4] were 222 nM, 53.9 nM and 6.8 nM, respectively.
Turning to `CCCC(=O)Nc1nc(-c2ccccc2)nc(-c2ccc3c(c2)OCO3)c1C#N`, the Ki at Adenosine receptor A1 [4] is 13.4 nM. The molecule also registered an Activity on Adenosine receptor A2a [2] of 23%.
`CCCC(=O)Nc1nc(-c2ccccc2)cc(-c2ccc3c(c2)OCO3)n1`: at Adenosine receptor A1 [4], the affinity, expressed as Ki, was 43 nM. The molecule also registered an Activity at Adenosine receptor A2a [2] of 8%.
Take `N#Cc1c(NC(=O)C2CCCC2)nc(-c2ccccc2)nc1-c1ccccc1`: the results for the Ki at Adenosine receptor A2a [3] and at Adenosine receptor A1 [4] were 280 nM and 5.3 nM, respectively.
In the case of `Cc1ccc(C(=O)Nc2nc(-c3ccccc3)c(C#N)c(-c3ccccc3)n2)cc1`, the inhibitory constant (Ki) at Adenosine receptor A2a [3] was 158 nM; on Adenosine receptor A1 [4], 115 nM.

Values taken from ChEMBL document CHEMBL1143999, “A new generation of adenosine receptor antagonists: from di- to trisubstituted aminopyrimidines” (Bioorg Med Chem, 2008).
